Measurements reported in patent publication US12780800B1, “Triazole-pyridinyl substituted azacyclohexyl acetic acid compounds as LPA receptor antagonists” (Viva Star Biosciences Limited, priority 2021, dated 2022).

The compounds below were run against T1, LPA1 (Homo sapiens, UniProt Q92633) (assay: LPA1 calcium flux assay (LPA1 functional antagonist assay)). Conditions: PathHunter CHO-K1 EDG2 β-Arrestin cell line; calcium indicator dye; stimulated with EC80 concentration of LPA; FLIPR Tetra.
T1 construct: ProLink (PK) beta-galactosidase enzyme-fragment tag; host or cells: CHO-K1
Assay type: cell-based
Protocol: Following overnight culture, cells were loaded with calcium indicator dye from the HitHunter Calcium No WashPLUS Assay kit (Eurofins DiscoverX Corporation, Cat #93-0091) for 45 minutes at 37° C. […] After compound addition, assay plates were equilibrated to room temperature for 30 minutes. […] IC50 values were determined by Chemical and Biological Information System from ChemInnovation Software, Inc. The compounds of this invention were tested for their activity to inhibit LPA1 as determined in an LPA1 functional antagonist assay as described herein.

T1 sequence (Q92633 whole entry, the tested form may be a part): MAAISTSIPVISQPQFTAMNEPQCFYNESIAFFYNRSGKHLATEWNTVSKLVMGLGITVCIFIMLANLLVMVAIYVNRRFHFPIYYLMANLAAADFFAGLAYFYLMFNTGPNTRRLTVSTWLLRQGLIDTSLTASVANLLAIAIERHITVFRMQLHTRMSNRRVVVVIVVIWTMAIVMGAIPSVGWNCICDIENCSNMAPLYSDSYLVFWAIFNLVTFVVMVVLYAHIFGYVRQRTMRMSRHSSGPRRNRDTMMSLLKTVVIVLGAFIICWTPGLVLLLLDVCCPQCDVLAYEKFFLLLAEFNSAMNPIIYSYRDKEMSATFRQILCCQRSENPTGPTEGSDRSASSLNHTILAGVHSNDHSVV

| Structure (SMILES) | IC50 |
| --- | --- |
| Cc1nc(-c2nnn(C)c2Cn2ccc(CC3CC3)c(C)c2=O)ccc1N1C[C@@H](CC(=O)O)CC(F)(F)C1 [Example 2, (S)-2-(1-(6-(5-((4-(cyclopropylmethyl)-3-methyl-2-oxopyridin-1(2H)-yl)methyl)-1-methyl-1H-1,2,3-triazol-4-yl)-2-methylpyridin-3-yl)-5,5-difluoropiperidin-3-yl)acetic acid] | 500 to 5000 nM |
| CCCc1ccc(=O)n(Cc2c(-c3ncc(CN4CC(C(=O)O)CC(F)(F)C4)c(CC)n3)cnn2C)c1 (single isomer, unassigned) [Example 160, (S) or (R)-1-((4-ethyl-2-(1-methyl-5-((2-oxo-5-propylpyridin-1(2H)-yl)methyl)-1H-pyrazol-4-yl)pyrimidin-5-yl)methyl)-5,5-difluoropiperidine-3-carboxylic acid] | 500 to 5000 nM |
| Cc1nc(-c2nnn(C)c2COc2nccc(C3CCC3)n2)ccc1N1C[C@@H](CC(=O)O)CC(F)(F)C1 [Example 76, (S)-2-(1-(6-(5-(((4-cyclobutylpyrimidin-2-yl)oxy)methyl)-1-methyl-1H-1,2,3-triazol-4-yl)-2-methylpyridin-3-yl)-5,5-difluoropiperidin-3-yl)acetic acid] | < 100 nM |
| CCc1nc(-c2nnn(C)c2CN2C[C@H](CC3CC3)N(C)C2=O)ccc1N1C[C@@H](CC(=O)O)CC(F)(F)C1 [Example 61, 2-((S)-1-(6-(5-(((S)-4-(cyclopropylmethyl)-3-methyl-2-oxoimidazolidin-1-yl)methyl)-1-methyl-1H-1,2,3-triazol-4-yl)-2-ethylpyridin-3-yl)-5,5-difluoropiperidin-3-yl)acetic acid] | 500 to 5000 nM |
| CCCc1cc(C)c(=O)n(Cc2c(-c3ccc(N4C[C@@H](CC(=O)O)CC(F)(F)C4)c(C)n3)nnn2C)c1 [Example 1, (S)-2-(5,5-difluoro-1-(2-methyl-6-(1-methyl-5-((3-methyl-2-oxo-5-propylpyridin-1(2H)-yl)methyl)-1H-1,2,3-triazol-4-yl)pyridin-3-yl)piperidin-3-yl)acetic acid] | 500 to 5000 nM |
| CCCc1ccc(=O)n(Cc2c(-c3cnc(N4CCCC(CC(=O)O)C4)cn3)nnn2C)c1 (stereo not shown) [Example 57, 2-(1-(5-(1-methyl-5-((2-oxo-5-propylpyridin-1(2H)-yl)methyl)-1H-1,2,3-triazol-4-yl)pyrazin-2-yl)piperidin-3-yl)acetic acid] | > 5000 nM |
| Cc1nc(-c2nnn(C)c2COc2nccc(C3CC3)n2)ccc1N1C[C@@H](CC(=O)O)CC(F)(F)C1 [Example 75, (S)-2-(1-(6-(5-(((4-cyclopropylpyrimidin-2-yl)oxy)methyl)-1-methyl-1H-1,2,3-triazol-4-yl)-2-methylpyridin-3-yl)-5,5-difluoropiperidin-3-yl)acetic acid] | 500 to 5000 nM |
| CCc1nc(-c2nnn(C)c2Cn2cc(C)c(C3CC3)cc2=O)ccc1N1C[C@@H](CC(=O)O)CC(F)(F)C1 [Example 19, (S)-2-(1-(6-(5-((4-cyclopropyl-5-methyl-2-oxopyridin-1(2H)-yl)methyl)-1-methyl-1H-1,2,3-triazol-4-yl)-2-ethylpyridin-3-yl)-5,5-difluoropiperidin-3-yl)acetic acid] | > 5000 nM |
| CCCc1ccc(=O)n(Cc2c(-c3ccc(N4CC(CC(=O)O)CCC4=O)c(CC)n3)nnn2C)c1 (single isomer, unassigned) [Example 55, (S) or (R)-2-(1-(2-ethyl-6-(1-methyl-5-((2-oxo-5-propylpyridin-1(2H)-yl)methyl)-1H-1,2,3-triazol-4-yl)pyridin-3-yl)-6-oxopiperidin-3-yl)acetic acid] | > 5000 nM |
| Cc1nc(-c2nnn(C)c2COc2cc(-n3ccnn3)ncn2)ccc1N1C[C@@H](CC(=O)O)CC(F)(F)C1 [Example 99, (S)-2-(1-(6-(5-(((6-(1H-1,2,3-triazol-1-yl)pyrimidin-4-yl)oxy)methyl)-1-methyl-1H-1,2,3-triazol-4-yl)-2-methylpyridin-3-yl)-5,5-difluoropiperidin-3-yl)acetic acid] | < 100 nM |
| CCc1nc(-c2nnn(C)c2COc2nccc(C3CCC3)n2)ccc1N1CCC[C@@H](CC(=O)O)C1 [Example 81, (S)-2-(1-(6-(5-(((4-cyclobutylpyrimidin-2-yl)oxy)methyl)-1-methyl-1H-1,2,3-triazol-4-yl)-2-ethylpyridin-3-yl)piperidin-3-yl)acetic acid] | > 5000 nM |
| CCCc1cn(C)c(=O)c(OCc2c(-c3ccc(N4C[C@@H](CC(=O)O)CC(F)(F)C4)c(CC)n3)nnn2C)n1 [Example 110, (S)-2-(1-(2-ethyl-6-(1-methyl-5-(((4-methyl-3-oxo-6-propyl-3,4-dihydropyrazin-2-yl)oxy)methyl)-1H-1,2,3-triazol-4-yl)pyridin-3-yl)-5,5-difluoropiperidin-3-yl)acetic acid] | > 5000 nM |
| Cc1nc(-c2nnn(C)c2COc2cc(-n3cccn3)ccn2)ccc1N1CCC[C@H](CC(=O)O)C1 [Example 103, (R)-2-(1-(6-(5-(((4-(1H-pyrazol-1-yl)pyridin-2-yl)oxy)methyl)-1-methyl-1H-1,2,3-triazol-4-yl)-2-methylpyridin-3-yl)piperidin-3-yl)acetic acid] | < 100 nM |
| CCCc1cccnc1OCc1c(-c2ccc(N3CCC(CC(=O)O)C(F)(F)C3)c(C)n2)nnn1C (stereo not shown) [Example 113, 2-(3,3-difluoro-1-(2-methyl-6-(1-methyl-5-(((3-propylpyridin-2-yl)oxy)methyl)-1H-1,2,3-triazol-4-yl)pyridin-3-yl)piperidin-4-yl)acetic acid] | 500 to 5000 nM |
| CCc1nc(-c2nnn(C)c2Cn2cc(CC3CC3)nn2)ccc1N1C[C@@H](CC(=O)O)CC(F)(F)C1 [Example 131, (S)-2-(1-(6-(5-((4-(cyclopropylmethyl)-1H-1,2,3-triazol-1-yl)methyl)-1-methyl-1H-1,2,3-triazol-4-yl)-2-ethylpyridin-3-yl)-5,5-difluoropiperidin-3-yl)acetic acid] | 100 to 500 nM |
| Cc1nc(-c2nnn(C)c2COc2nccc(-n3cccn3)n2)ccc1N1CCC[C@H](CC(=O)O)C1 [Example 102, (R)-2-(1-(6-(5-(((4-(1H-pyrazol-1-yl)pyrimidin-2-yl)oxy)methyl)-1-methyl-1H-1,2,3-triazol-4-yl)-2-methylpyridin-3-yl)piperidin-3-yl)acetic acid] | < 100 nM |
| CCc1nc(-c2cnn(C)c2COc2nccc(C3CCC3)n2)ncc1N1C[C@@H](CC(=O)O)CC(F)(F)C1 [Example 87, (S)-2-(1-(2-(5-(((4-cyclobutylpyrimidin-2-yl)oxy)methyl)-1-methyl-1H-pyrazol-4-yl)-4-ethylpyrimidin-5-yl)-5,5-difluoropiperidin-3-yl)acetic acid] | < 100 nM |
| Cn1nnc(-c2ccc(N3CCC[C@H](CC(=O)O)C3)c(C(F)F)n2)c1Cn1ncc(CC2CC2)n1 [Example 167, (R)-2-(1-(6-(5-((4-(cyclopropylmethyl)-2H-1,2,3-triazol-2-yl)methyl)-1-methyl-1H-1,2,3-triazol-4-yl)-2-(difluoromethyl)pyridin-3-yl)piperidin-3-yl)acetic acid] | < 100 nM |
| CCc1nc(-c2nnn(C)c2Cn2cc(CC(C)C)ccc2=O)ccc1CN1CC(C(=O)O)CC(F)(F)C1 (single isomer, unassigned) [Example 155, (R) or (S)-1-((2-ethyl-6-(5-((5-isobutyl-2-oxopyridin-1(2H)-yl)methyl)-1-methyl-1H-1,2,3-triazol-4-yl)pyridin-3-yl)methyl)-5,5-difluoropiperidine-3-carboxylic acid] | 500 to 5000 nM |
| CCCN(C)C(=O)OCc1c(-c2ccc(N3CCOC(CC(=O)O)C3)c(CC)n2)nnn1C (stereo not shown) [Example 170, 2-(4-(2-ethyl-6-(1-methyl-5-(((methyl(propyl)carbamoyl)oxy)methyl)-1H-1,2,3-triazol-4-yl)pyridin-3-yl)morpholin-2-yl)acetic acid] | 500 to 5000 nM |
| CCc1nc(-c2nnn(C)c2Cn2nncc2CC2CC2)ccc1N1C[C@@H](CC(=O)O)CC(F)(F)C1 [Example 132, (S)-2-(1-(6-(5-((5-(cyclopropylmethyl)-1H-1,2,3-triazol-1-yl)methyl)-1-methyl-1H-1,2,3-triazol-4-yl)-2-ethylpyridin-3-yl)-5,5-difluoropiperidin-3-yl)acetic acid] | < 100 nM |
| CCCc1ccc(=O)n(Cc2c(-c3ccc(N4CCC[C@H](CC(=O)O)C4)c(CC)n3)nnn2C)c1 [Example 22, (R)-2-(1-(2-ethyl-6-(1-methyl-5-((2-oxo-5-propylpyridin-1(2H)-yl)methyl)-1H-1,2,3-triazol-4-yl)pyridin-3-yl)piperidin-3-yl)acetic acid] | 100 to 500 nM |
| CCCc1ccc(=O)n(Cc2c(-c3ccc(N4CCC[C@H](CC(=O)O)C4)c(C#N)n3)nnn2C)c1 [Example 50, (R)-2-(1-(2-cyano-6-(1-methyl-5-((2-oxo-5-propylpyridin-1(2H)-yl)methyl)-1H-1,2,3-triazol-4-yl)pyridin-3-yl)piperidin-3-yl)acetic acid] | > 5000 nM |
| CCCN(C)C(=O)OCc1c(-c2ccc(CN3CC(C(=O)O)CC(F)(F)C3)c(CC)n2)nnn1C (single isomer, unassigned) [Example 164, 1-((2-ethyl-6-(1-methyl-5-(((methyl(propyl)carbamoyl)oxy)methyl)-1H-1,2,3-triazol-4-yl)pyridin-3-yl)methyl)-5,5-difluoropiperidine-3-carboxylic acid] | > 5000 nM |
| CCc1nc(-c2nnn(C)c2COc2nc(C3CCC3)nc(N3CCOCC3)n2)ccc1N1CCC[C@H](CC(=O)O)C1 [Example 96, (R)-2-(1-(6-(5-(((4-cyclobutyl-6-morpholino-1,3,5-triazin-2-yl)oxy)methyl)-1-methyl-1H-1,2,3-triazol-4-yl)-2-ethylpyridin-3-yl)piperidin-3-yl)acetic acid] | 100 to 500 nM |
